“Also recorded” adds a separate entry of the source.
How the values were obtained:
[1] = system: caspase-3 activity in INS-1 (832/13) cells; assay: Caspase-3 activity induced by streptozotocin (STZ); assay type: cell-based; conditions: added 10 minutes prior to and during a 30 minute STZ exposure
Description: (§1) INS-1 cells (clone 832/13) seeded into 6-well plates were serum starved for 12-24 h and subjected to glucose deprivation (RPMI with 0.1% BSA) or treatment with 2 mM streptozotocin (STZ). […] Following treatment, caspase-3 activity was determined after 2, 6, or 24 h according to the manufacturers' protocol (Molecular Probes, Eugene, Oreg., USA). Caspase-3 activity/well was corrected for total protein content using the BCA protein assay (Pierce, Roxford, II, USA).

[2] = system: caspase-3 activity in INS-1 (832/13) cells; assay: Caspase-3 activity induced by glucose deprivation; assay type: cell-based; conditions: 6 h; 100 nM GIP, 10 µM forskolin
Description: as §1

INS-1 (832/13) cells [3] = assay: Cell survival during glucose deprivation (CYQUANT); assay type: cell-based
Description: (§2) Cell passages 45-60 were used.
Cells were seeded into 96-well plates (5×10^4 cells/well) prior to experimentation. […] Cells were quantified using the CYQUANT™ assay system (Molecular Probes, Eugene, Oreg., USA) according to the manufacturers' protocol.
Cell survival was assessed in the presence of prolonged glucose deprivation.

INS-1 (832/13) cells [4] = assay: Glucose dependent β-cell proliferation (CYQUANT cell quantification); assay type: cell-based
Description: as §2
Cells were seeded into 96-well plates (5×10^4 cells/well) prior to experimentation. […] Thereafter, cells were washed with KRBH (115 mM NaCl, 4.7 mM KCl, 1.2 mM KH2PO4, 10 mM NaHCO3, 1.28 mM CaCl2, 1.2 mM MgSO4 containing 10 mM HEPES and 0.1% bovine serum albumin, pH 7.4) and frozen at −70° C. until assayed. Cells were quantified using the CYQUANT™ assay system (Molecular Probes, Eugene, Oreg., USA) according to the manufacturers' protocol. Final cell numbers were always greater than the initial number plated in assessing cellular proliferation.

[5] = system: INS-1 cells (clone 832/13); assay: Insulin release from INS-1 (832/13) cells; assay type: cell-based; conditions: 10 nM GIP, 60 minutes, n=3
Source text: as §2

[6] = in vivo; cited from earlier work

CC[C@H](C)[C@H](NC(=O)[C@H](CO)NC(=O)[C@H](Cc1ccc(O)cc1)NC(=O)[C@H](CC(=O)O)NC(=O)[C@H](CO)NC(=O)[C@@H](NC(=O)[C@H](Cc1ccccc1)NC(=O)[C@@H](NC(=O)CNC(=O)[C@H](CCC(=O)O)NC(=O)[C@H](C)NC(=O)[C@@H](N)Cc1ccc(O)cc1)[C@@H](C)O)[C@@H](C)CC)C(=O)N[C@@H](C)C(=O)N[C@@H](CCSC)C(=O)N[C@@H](CC(=O)O)C(=O)N[C@@H](CCCCN)C(=O)N[C@H](C(=O)N[C@@H](Cc1c[nH]cn1)C(=O)N[C@@H](CCC(N)=O)C(=O)N[C@@H](CCC(N)=O)C(=O)N[C@@H](CC(=O)O)C(=O)N[C@@H](Cc1ccccc1)C(=O)N[C@H](C(=O)N[C@@H](CC(N)=O)C(=O)N[C@@H](Cc1c[nH]c2ccccc12)C(=O)N[C@@H](CC(C)C)C(=O)N[C@@H](CC(C)C)C(=O)N[C@@H](C)C(=O)N[C@@H](CCC(N)=O)C(=O)N[C@@H](CCCCN)C(=O)NCC(=O)N[C@@H](CCCCN)C(=O)N[C@@H](CCCCN)C(=O)N[C@@H](CC(N)=O)C(=O)N[C@@H](CC(=O)O)C(=O)N[C@@H](Cc1c[nH]c2ccccc12)C(=O)N[C@@H](CCCCN)C(=O)N[C@@H](Cc1c[nH]cn1)C(=O)N[C@@H](CC(N)=O)C(=O)N[C@H](C(=O)N[C@H](C(=O)N[C@@H](CCC(N)=O)C(=O)O)[C@@H](C)O)[C@@H](C)CC)C(C)C)[C@@H](C)CC [GIP, glucose-dependent insulinotropic polypeptide]
STZ induced caspase-3 activity [1]: protect against the pro-apoptotic (caspase-3 activating) effects of STZ completely; also recorded: ablates | 0 mM glucose induced caspase-3 activity [2]: completely reversed; also recorded: ablates | effect on cell survival during glucose deprivation (INS-1 (832/13) cells [3]; 0 mM glucose): promotes INS-1 (832/13) cell survival during glucose deprivation in a concentration-dependent manner | protection against wortmannin-induced cell loss (INS-1 (832/13) cells [3]; n=3, p<0.05): partially protected; also recorded: partially reversed | potentiation of glucose dependent β-cell proliferation (INS-1 (832/13) cells [4]; 11 mM glucose): potentiates 11 mM glucose induced cell growth | cell proliferation, % of growth in the presence of 5.5 mM glucose (INS-1 (832/13) cells [4]; 11 mM glucose, 100 nM, FIG. 15A): 158±16% | cell growth, % of that measured in the presence of 5.5 mM glucose (INS-1 (832/13) cells [4]; separate experiment, 100 nM, n=4): 131±7% | 5.5 mM glucose stimulated insulin secretion [5]: 2.44±0.29 % total insulin secreted | biological half-life [6]: ~2 min
